Data as given in PubChem BioAssay AID434951 (Broad Institute, 2010).
Calls of active or inactive are those of the source.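 How the source made its calls: active means a fitted half-maximal concentration EC50 for the rise in nuclear signal no higher than ten times the top dose tested; inconclusive means flat fit with activity between 30% and 70%, or unusable fit; inactive means EC50 beyond ten times the top dose.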

target: Hypoxia-inducible factor 1-alpha (Homo sapiens) (UniProt Q16665); assay: activators of HIF1alpha nuclear accumulation, confirmation, imaging, fluorescence, U2OS GFP-HIF1alpha (AID 434951); conditions: U2OS GFP-HIF1alpha nuclear intensity, high-content imaging
Sequence (Q16665 whole entry, looked up): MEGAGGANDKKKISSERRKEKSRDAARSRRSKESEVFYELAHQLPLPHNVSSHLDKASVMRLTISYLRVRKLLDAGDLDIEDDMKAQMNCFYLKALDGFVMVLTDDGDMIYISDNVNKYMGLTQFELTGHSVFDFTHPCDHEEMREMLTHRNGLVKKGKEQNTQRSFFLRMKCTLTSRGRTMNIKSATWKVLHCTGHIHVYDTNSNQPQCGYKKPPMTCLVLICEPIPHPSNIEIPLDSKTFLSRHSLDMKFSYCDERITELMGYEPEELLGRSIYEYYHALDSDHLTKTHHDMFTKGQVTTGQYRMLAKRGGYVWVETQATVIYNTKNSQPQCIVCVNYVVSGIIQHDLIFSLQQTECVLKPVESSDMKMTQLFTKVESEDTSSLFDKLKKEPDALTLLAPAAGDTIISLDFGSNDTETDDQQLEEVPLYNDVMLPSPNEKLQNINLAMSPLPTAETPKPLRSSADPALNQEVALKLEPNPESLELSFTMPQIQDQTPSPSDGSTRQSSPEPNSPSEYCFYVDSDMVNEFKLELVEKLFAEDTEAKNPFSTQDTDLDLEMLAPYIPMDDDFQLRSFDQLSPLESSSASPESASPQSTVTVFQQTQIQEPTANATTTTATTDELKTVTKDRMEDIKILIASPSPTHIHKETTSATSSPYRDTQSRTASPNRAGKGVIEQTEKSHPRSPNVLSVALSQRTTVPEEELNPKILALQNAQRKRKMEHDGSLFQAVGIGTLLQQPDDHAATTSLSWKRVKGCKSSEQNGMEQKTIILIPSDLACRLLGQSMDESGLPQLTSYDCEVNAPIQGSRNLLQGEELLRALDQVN

Question: With Cc1cc(N/N=C/c2ccc(O)cc2O)nc(-c2ccccc2O)n1 as the molecule, how does the EC50 read?
Answer: 4.53 µM

Question: With O=C(COc1cccc2ccccc12)Nc1ccc(Cl)cc1C(=O)O as the molecule, how does the EC50 read?
Answer: > 35 µM (inactive)

Question: With O=C(NC(CSCc1ccccc1)C(=O)N/N=C/c1ccc(O)cc1O)c1ccc([N+](=O)[O-])cc1 (stereo unspecified) as the molecule, how does the EC50 read?
Answer: 2.51 µM

Question: How did the EC50 turn out when C(=N\Nc1nc2ccccc2[nH]1)/c1cccc2cccnc12 was run?
Answer: 12 µM

Question: Which EC50 does the source give for CCC(C)(C)c1nnc(NC(=O)C2CCN(C(=O)c3ccco3)CC2)s1 here?
Answer: > 35 µM (inactive)

Question: With COc1ccc2[nH]c(C(=O)N/N=C/c3ccccc3OC)cc2c1 as the molecule, how does the EC50 read?
Answer: > 35 µM (inactive)

Question: Which EC50 does the source give for COc1cccc(C2C3=C(N=c4s/c(=C\c5ccccc5O)c(=O)n42)c2ccccc2CC3)c1OC (stereo unspecified) here?
Answer: > 35 µM (inactive)

Question: How did the EC50 turn out when COc1cccc(C(NC(C)=O)c2ccc3cccnc3c2O)c1 (stereo unspecified) was run?
Answer: 5.94 µM

Question: CC1CN(S(=O)(=O)c2cccc(C(=O)N(CCc3ccccc3)Cc3ccccc3)c2)CC(C)O1 (stereo unspecified) was tested. Which EC50 did it give?
Answer: > 35 µM (inactive)

Question: Cc1sc2ncnc(Sc3nnnn3-c3ccc(Cl)cc3)c2c1C was tested. Which EC50 did it give?
Answer: > 35 µM (inactive)

Question: For CC1CCN(S(=O)(=O)c2ccc3c4c2CC(=O)N4CC(C)S3)CC1 (stereo unspecified), which EC50 is on record?
Answer: > 35 µM (inactive)

Question: Which EC50 does the source give for CN(C)c1ccc(CNC(=O)CCS(=O)(=O)c2ccc3c(c2)oc(=O)n3C)cc1 here?
Answer: > 35 µM (inactive)

Question: For NC(=O)c1sc2nccc(Nc3ccccc3)c2c1N, which EC50 is on record?
Answer: > 35 µM (inactive)

Question: Which EC50 does the source give for Cc1ccn2cc(-c3ccc(O)c(O)c3)nc2c1 here?
Answer: > 35 µM (inactive)

Question: How did the EC50 turn out when CCCN(CCC)C(=S)Nc1cc(C(=O)OC)ccc1C(=O)OC was run?
Answer: > 35 µM (inactive)

Question: Cc1cccc(CCNC(=O)Cn2ncc3c([nH]c4ccc(C)cc43)c2=O)c1 was tested. Which EC50 did it give?
Answer: > 35 µM (inactive)

Question: Cc1ccc(NC2CCCN(C(=O)C3CCCCC3)C2)cc1C (stereo unspecified) was tested. Which EC50 did it give?
Answer: > 35 µM (inactive)

Question: Cc1cccc(C)c1Nc1c(-c2ccccn2)nc2ccccn12 was tested. Which EC50 did it give?
Answer: 3.28 µM

Question: Which EC50 does the source give for COc1ccc(C/C(C)=N/NS(=O)(=O)c2ccc(Br)cc2)cc1 here?
Answer: > 35 µM (inactive)

Question: Which EC50 does the source give for COc1ccc(CN2CCNC(=O)C2CC(=O)N(C)CC2CCOCC2)cc1OC (stereo unspecified) here?
Answer: > 35 µM (inactive)

Question: With CC(Oc1ccc2ccc(=O)oc2c1)C(=O)NCCN1CCOCC1 (stereo unspecified) as the molecule, how does the EC50 read?
Answer: > 35 µM (inactive)

Question: CCCC(=O)NC(c1ccc(Cl)cc1)c1ccc2cccnc2c1O (stereo unspecified) was tested. Which EC50 did it give?
Answer: 2.22 µM

Question: For O=C(Nc1nc2ccc([N+](=O)[O-])cc2s1)c1c(F)cccc1F, which EC50 is on record?
Answer: > 35 µM (inactive)

Question: How did the EC50 turn out when O=C(CN1CCC(C(=O)c2ccc(Cl)cc2)CC1)Nc1ccc2c(c1)OCCO2 was run?
Answer: > 35 µM (inactive)

Question: With COc1ccc(C(=O)NCCc2nc3cc([N+](=O)[O-])ccc3n2C)cc1 as the molecule, how does the EC50 read?
Answer: > 35 µM (inactive)

Question: CCOc1ccc(C(=O)NCC2CCCO2)cc1OCC (stereo unspecified) was tested. Which EC50 did it give?
Answer: > 35 µM (inactive)

Question: For Oc1ccccc1N=Nc1ccccc1O, which EC50 is on record?
Answer: 2.01 µM

Question: For COc1cc(CC(=O)Nc2ccc(Cl)c(C(F)(F)F)c2)cc(OC)c1OC, which EC50 is on record?
Answer: > 35 µM (inactive)

Question: With O=C(Nc1ncc2c(n1)CC(c1ccco1)CC2=O)c1ccccc1 (stereo unspecified) as the molecule, how does the EC50 read?
Answer: > 35 µM (inactive)

Question: With O=C(Nc1nc(-c2ccccn2)cs1)c1cc(Cl)ccc1[N+](=O)[O-] as the molecule, how does the EC50 read?
Answer: 9.95 µM

Question: CN(C)C=NC(=O)c1cn(-c2ccc(F)cc2)c(=O)c2ccccc12 was tested. Which EC50 did it give?
Answer: > 35 µM (inactive)

Question: Which EC50 does the source give for Cc1ncc(CO)c(/C=N/Nc2ccc(C(F)(F)F)cn2)c1O here?
Answer: 17.8 µM

Question: How did the EC50 turn out when COc1cccc(C(=O)SC2=NCCS2)c1 was run?
Answer: > 35 µM (inactive)

Question: COC(=O)Cc1ccc(NC(=S)NC(C)(C)C)cc1 was tested. Which EC50 did it give?
Answer: > 35 µM (inactive)

Question: How did the EC50 turn out when CCN(CCCNC(=O)CCc1nc(-c2ccc(OC)cc2)no1)c1cccc(C)c1 was run?
Answer: > 35 µM (inactive)

Question: How did the EC50 turn out when O=[N+]([O-])c1cccnc1N/N=C/c1ccccc1O was run?
Answer: 34.5 µM

Question: With COc1ccc(N/C=C\C(=O)c2ccc3c(c2)OCO3)cc1 as the molecule, how does the EC50 read?
Answer: > 35 µM (inactive)

Question: O=C(CCSc1nc2ccccc2s1)N/N=C/c1c(O)ccc2ccccc12 was tested. Which EC50 did it give?
Answer: 11.5 µM

Question: With O=C(N/N=C/c1ccc(F)cc1)c1cc(-c2ccc3c(c2)OCO3)n[nH]1 as the molecule, how does the EC50 read?
Answer: 16.2 µM

Question: With O=C(CSc1nc2ccccc2c(=O)n1-c1ccccc1)NC(=O)CN1CCCC1=O as the molecule, how does the EC50 read?
Answer: > 35 µM (inactive)

Question: Which EC50 does the source give for Cn1cc(CC(=O)N2CCN(c3ccc(Cl)cc3)CC2)c2ccccc21 here?
Answer: > 35 µM (inactive)

Question: With COc1ccc(C2(C)NC(=O)NC2=O)cc1OC (stereo unspecified) as the molecule, how does the EC50 read?
Answer: > 35 µM (inactive)

Question: CCN(CC)CCOc1ccc2c(c1)C(=NO)c1cc(OCCN(CC)CC)ccc1-2 was tested. Which EC50 did it give?
Answer: > 35 µM (inactive)

Question: For Oc1c(C(Nc2cccc(C(F)(F)F)c2)c2ccncc2)ccc2cccnc12 (stereo unspecified), which EC50 is on record?
Answer: 6.49 µM

Question: Cn1nnnc1N=N/C(=N/Nc1ccccc1)c1ccccc1 was tested. Which EC50 did it give?
Answer: 7.53 µM

Question: Which EC50 does the source give for CCN1CCN(c2ccc([N+](=O)[O-])cc2C=C2C(=O)NC(=O)NC2=O)CC1 here?
Answer: > 35 µM (inactive)

Question: CCCC(=O)NC(c1ccccc1)c1ccc2cccnc2c1O (stereo unspecified) was tested. Which EC50 did it give?
Answer: 4.71 µM

Question: O=C(N/N=C/c1c(O)ccc2ccccc12)c1cccc(C(F)(F)F)c1 was tested. Which EC50 did it give?
Answer: 8.56 µM

Question: With COc1cc2ccccc2cc1C(=O)NNC(=O)c1ccccc1O as the molecule, how does the EC50 read?
Answer: > 35 µM (inactive)

Question: With COc1cccc(NC(=S)N(CCCN2CCOCC2)Cc2cn(C)c3ccccc23)c1 as the molecule, how does the EC50 read?
Answer: > 35 µM (inactive)

Question: Which EC50 does the source give for Cc1ccc(/C(=N/Nc2ncnc3ccccc23)C(=O)O)cc1 here?
Answer: > 35 µM (inactive)
